Measured values published in patent publication US4937232A, “Inhibition of protein kinase C by long-chain bases” (priority 1988, dated 1990).

Legend:
HL-60 cells = experiment: Acid phosphatase activities of suspended and attached HL-60 cells; assay type: cell-based, human
Description: Cells were centrifuged at 600 g for 3 min, and added at 1×10^5 cells per well in 12-well culture dishes. Medium, PMA, and long-chain bases (prepared as the 1:1 molar complex with fatty acid-free bovine serum albumin) at the indicated concentrations were added for a total volume of 2.0 ml. After the desired times, the cells in suspension were counted and checked for viability (trypan blue exclusion) with a hemacytometer. The attached cells were quantitated by measuring DNA content according to the method of West et al (Anal. Biochem., 147, 289-295, 1985) and by assaying for acid phosphatase according to the method of Schnyder (J. Exp. Med., 148, 434-445, 1978).

human neutrophils = experiment: Superoxide production by neutrophils (cytochrome c reduction); assay type: cell-based; details: Neutrophil, approximately 5×10^5 cells/ml, all activators, read-out: concentration for 50% inhibition of superoxide production
Description: Superoxide production by cells was quantitated from superoxide-mediated reduction of cytochrome c, monitored as an increase in absorbance at 550 nm and an extinction coefficient at 21,000 M^-1 cm^-1. Measurements were carried out at 37° C. using approximately 5×10^5 neutrophils per ml, stirred continuously. The cells were allowed to equilibrate several minutes prior to the addition of effectors. Conditions for individual experiments are described in figure legends and tables. Controls utilizing added superoxide dismutase verified that the cytochrome c reduction was mediated by superoxide.

NADPH-oxidase = target: T1, NADPH-oxidase (Homo sapiens, UniProt P04839); experiment: NADPH-oxidase activity in isolated neutrophil membranes; assay type: biochemical
T1 construct: endogenous in cells
Description: Superoxide production was also measured spectrophotometrically in isolated membranes (see below) by the method of Curnutte et al (N. Eng. J. Med. 293, 628-632) also using superoxide dismutase inhibitable reduction of cytochrome c. Assays utilized paired cuvettes with the reference cuvette containing 30 μg/ml superoxide dismutase. Both cuvettes also contained 65 mM potassium phosphate pH 7.0, 125 mM sucrose, 81 μM cytochrome c, and 0.1 mg of membrane protein. The reaction was initiated with 200 μM (final) NADPH in both cuvettes. The treatments are as described in Table I. All spectrophotometric measurements were carried out using a Cary […] spectrophotometer.
Neutrophil membranes activated for superoxide production were prepared as described previously (Hohn, J. Clin. Invest. 55, 707-713, 1975). Neutrophils (10^8) were suspended in PBS-glucose and incubated in a shaking waterbath at 37° C. Cells were activated by the addition of 10 μg PMA/ml and allowed to incubate 5 min. The reaction was stopped by adding an equal volume of ice-cold PBS. The cells were centrifuged at 400×g for 4 min at 4° C. and resuspended in PBS-glucose containing 120 μM FAD. The cells were lysed by homogenization with a teflon-glass homogenizer. The homgenate was centrifuged at 250×g for 10 min. to remove unlysed cells. […]

protein kinase C = experiment: Phorbol-dibutyrate binding to protein kinase C, mixed micellar assay (Table VI); details: Triton X-100 mixed micelles, 20 mol % phosphatidylserine
Description: TABLE VI: Inhibition of protein kinase C activity and phorbol-dibutyrate binding by lysosphingolipids. […] The remaining two columns show the observed effects of the lysosphingolipids of protein kinase C activity and phorbol diester binding in vitro and in human platelets. Lysogangliosides were prepared from their parental gangliosides by hydrolysis in methanolic KOH esentially as described by Neuenhofer et al. in Bioch. 24, 525, 1985. During this preparation, with approximately 90-95% conversion, the N-acetate of N-acetylneuraminic acid is partially hydrolyzed. Fatty acids were partitioned into heptane after acidification of the methanolic reaction mixture. Galactosylsphingosine, glucosylsphingosine, and lactosylsphingosine were prepared as previously described for galactosylsphingosine (Radin, Lipids 9, 358, 1974) Sphingosylphosphorylcholine was prepared by hydrolysis in HCl-butanol (Kaller, Biochemische Zeitschrift 334, 451, 1961). The purity of the lyso derivatives (greater than 90%) was checked by thin layer chromatography (TLC) on silica gel H plates developed in chloroform/methanol/2N NH4 OH (65/35/9) and visualized by ninhydrin reaction for N-lyso compounds, by α-naphthol/sulfuric acid for both gangliosides and lysogangliosides,and by a phospholipid spray for sphingosylphosphorylcholine. Lysosphingolipids were quantitated by reaction of the amine group with trinitrobenzenesulfonate. Gangliosides and lysosphingolipids were also quantitated by reaction with anthrone. The lysosphingolipids were then studied for their effect on protein kinase C activity. Protein kinase C was purified to near homogeneity by the method of Wolf et al. (J. Biol. Chem. 260, 15718, 1985), and activity was measured using a mixed micellar assay (described herein). Lysosphingolipids were added directly in aqueous solution, and allowed to equilibrate with the Triton X-100 (0.3% w/v) mixed micelles containing 6 mol % phosphatidylserine and 2 mol % dioleoylglycerol. […] Phorbol-dibutyrate binding was measured in a mixed micellar assay. Lysosphingolipids inhibited phorbol-dibutyrate binding to protein kinase C in the presence of Triton X-100 mixed micelles containing 20 mol % phosphatidylserine. […] The difference is related to the higher concentration of phosphatidylserine used in the binding assay, as both activity and binding show a high cooperative dependence on phosphatidylserine, which modulates the inhibition by lysosphingolipids. Phorbol-dibutyrate binding to human platelets and 40 kDa phosphorylation in platelets were carried out as described above. Lysosphingolipids inhibited phorbol dibutyrate binding to human platelets at concentrations in the 10-50 μM range. Inhibition of 40 kDa phosphorylation occurred over the same concentration range.

[1] = 8 nM PMA, 1 μM sphinganine, 24 h
[2] = 8 nM PMA, 1 μM sphinganine, 72 h
[3] = 8 nM PMA, 2.5 μM sphinganine, 24 h
[4] = 8 nM PMA, 2.5 μM sphinganine, 72 h
[5] = 8 nM PMA, 5 μM sphinganine, 24 h
[6] = 8 nM PMA, 5 μM sphinganine, 72 h
[7] = No PMA, 2.5 μM sphinganine, 24 h
[8] = No PMA, 2.5 μM sphinganine, 72 h

`CCCCCCCCCCCCCCC[C@@H](O)[C@@H](N)CO` (relative stereo) [Sphinganine, erythro-dihydrosphingosine] was tested, and the “Acid phosphatase activity, Adherent” value (HL-60 cells; [1]) was 0.44 ± 0.11 nmol/h/dish, the “Acid phosphatase activity, Suspended” value (HL-60 cells; [1]) was 0.22 ± 0.07 nmol/h/dish and the “Adherence (% of total)” value (HL-60 cells; [1]) was 67 % of total. For the same compound, the “Acid phosphatase activity, Adherent” value (HL-60 cells; [2]) was 2.95 ± 0.62 nmol/h/dish, the “Acid phosphatase activity, Adherent (%)” value (HL-60 cells; [2]) was 98% and the “Acid phosphatase activity, Suspended” value (HL-60 cells; [2]) was 0.05 ± 0.01 nmol/h/dish. For the same compound, the “Acid phosphatase activity, Adherent” value (HL-60 cells; [3]) was 0.30 ± 0.04 nmol/h/dish, the “Acid phosphatase activity, Suspended” value (HL-60 cells; [3]) was 0.49 ± 0.28 nmol/h/dish and the “Adherence (% of total)” value (HL-60 cells; [3]) was 38 % of total. The “Acid phosphatase activity, Adherent” value (HL-60 cells; [4]) was 3.10 ± 0.30 nmol/h/dish, the “Acid phosphatase activity, Adherent (%)” value (HL-60 cells; [4]) was 98% and the “Acid phosphatase activity, Suspended” value (HL-60 cells; [4]) was 0.06 nmol/h/dish. The “Acid phosphatase activity, Adherent” value (HL-60 cells; [5]) was 0.14 ± 0.04 nmol/h/dish, the “Adherence (% of total)” value (HL-60 cells; [5]) was 21 % of total and the “Acid phosphatase activity, Adherent” value (HL-60 cells; [6]) was 0.82 ± 0.38 nmol/h/dish. The “Acid phosphatase activity, Adherent (%)” value (HL-60 cells; [6]) was 87%, the “Acid phosphatase activity, Suspended” value (HL-60 cells; [6]) was 0.12 ± 0.08 nmol/h/dish and the “Acid phosphatase activity, Adherent” value (HL-60 cells; No PMA, 1 μM sphinganine, 24 h) was 0.06 ± 0.03 nmol/h/dish. For the same compound, the “Acid phosphatase activity, Suspended” value (HL-60 cells; No PMA, 1 μM sphinganine, 24 h) was 1.53 ± 0.01 nmol/h/dish, the “Adherence (% of total)” value (HL-60 cells; No PMA, 1 μM sphinganine, 24 h) was 4 % of total and the “Acid phosphatase activity, Adherent” value (HL-60 cells; No PMA, 1 μM sphinganine, 72 h) was 0.05 ± 0.03 nmol/h/dish. For the same compound, the “Acid phosphatase activity, Adherent (%)” value (HL-60 cells; No PMA, 1 μM sphinganine, 72 h) was 2%, the “Acid phosphatase activity, Suspended” value (HL-60 cells; No PMA, 1 μM sphinganine, 72 h) was 2.77 ± 0.25 nmol/h/dish and the “Acid phosphatase activity, Adherent” value (HL-60 cells; [7]) was 0.06 ± 0.02 nmol/h/dish. For the same compound, the “Acid phosphatase activity, Suspended” value (HL-60 cells; [7]) was 1.25 ± 0.16 nmol/h/dish, the “Adherence (% of total)” value (HL-60 cells; [7]) was 5 % of total and the “Acid phosphatase activity, Adherent” value (HL-60 cells; [8]) was 0.05 ± 0.02 nmol/h/dish. For the same compound, the “Acid phosphatase activity, Adherent (%)” value (HL-60 cells; [8]) was 2%, the “Acid phosphatase activity, Suspended” value (HL-60 cells; [8]) was 2.35 ± 0.11 nmol/h/dish and the “Acid phosphatase activity, Adherent” value (HL-60 cells; No PMA, 5 μM sphinganine, 24 h) was 0.04 ± 0.01 nmol/h/dish. The “Acid phosphatase activity, Suspended” value (HL-60 cells; No PMA, 5 μM sphinganine, 24 h) was 0.91 ± 0.16 nmol/h/dish, the “Adherence (% of total)” value (HL-60 cells; No PMA, 5 μM sphinganine, 24 h) was 4 % of total and the “Acid phosphatase activity, Adherent” value (HL-60 cells; No PMA, 5 μM sphinganine, 72 h) was 0.04 ± 0.01 nmol/h/dish. For the same compound, the “Acid phosphatase activity, Adherent (%)” value (HL-60 cells; No PMA, 5 μM sphinganine, 72 h) was 14%, the “Acid phosphatase activity, Suspended” value (HL-60 cells; No PMA, 5 μM sphinganine, 72 h) was 0.24 ± 0.01 nmol/h/dish and the IC50 (human neutrophils) was roughly 1 µM. For the same compound, the “Cytochrome c Reduction” value (NADPH-oxidase; 18 μM sphinganine, membranes from PMA-pretreated cells) was 27 nmols/min/mg/protein and the “inhibition of NADPH-dependent superoxide generation in isolated membranes” value (NADPH-oxidase; concentrations which inhibited the cellular response) was “No inhibition”.
With `CCCCCCCCCCCCC/C=C/[C@@H](O)[C@@H](N)CO` [sphingosine] the “Inhibition of [3H]PDBu Binding to Protein Kinase, (mol %)” value (protein kinase C) was 9.3 mol % and the IC50 (protein kinase C; read-out: Inhibition of [3H]PDBu Binding to Protein Kinase) was 400 µM.
